Measured values: ChEMBL document CHEMBL1671673, “In vitro activity of colistin (polymyxin E) against 3,480 isolates of gram-negative bacilli obtained from patients in Canadian hospitals in the CANWARD study, 2007-2008” (Antimicrob Agents Chemother, 2009)

Key:
Type in all cases: functional, organism-based
Design in all cases: scale not given: the % may be the effect or the level left
Pseudomonas aeruginosa [1] = test: Antibacterial activity against Meropenem-resistant Pseudomonas aeruginosa assessed as susceptible isolates at minimum inhibitory concentration of 1 ug/ml by CLSI broth microdilution method
Pseudomonas aeruginosa [2] = test: Antibacterial activity against MDR4 Pseudomonas aeruginosa assessed as susceptible isolates at minimum inhibitory concentration of 1 ug/ml by CLSI broth microdilution method
Pseudomonas aeruginosa [3] = test: Antibacterial activity against tazobactam-resistant Pseudomonas aeruginosa assessed as susceptible isolates at minimum inhibitory concentration of 4 ug/ml by CLSI broth microdilution method
Serratia marcescens [4] = test: Antibacterial activity against Serratia marcescens assessed as susceptible isolates at minimum inhibitory concentration of 1 ug/ml by CLSI broth microdilution method
Serratia marcescens [5] = test: Antibacterial activity against Serratia marcescens assessed as susceptible isolates at minimum inhibitory concentration of 0.25 ug/ml by CLSI broth microdilution method
Proteus mirabilis [6] = test: Antibacterial activity against Proteus mirabilis assessed as susceptible isolates at minimum inhibitory concentration of 1 ug/ml by CLSI broth microdilution method
Proteus mirabilis [7] = test: Antibacterial activity against Proteus mirabilis assessed as susceptible isolates at minimum inhibitory concentration of 0.25 ug/ml by CLSI broth microdilution method
Enterobacter cloacae [8] = test: Antibacterial activity against Enterobacter cloacae assessed as susceptible isolates at minimum inhibitory concentration of >16 ug/ml by CLSI broth microdilution method
Enterobacter cloacae [9] = test: Antibacterial activity against Enterobacter cloacae assessed as susceptible isolates at minimum inhibitory concentration of 0.5 ug/ml by CLSI broth microdilution method
Enterobacter cloacae [10] = test: Antibacterial activity against Enterobacter cloacae assessed as susceptible isolates at minimum inhibitory concentration of 0.25 ug/ml by CLSI broth microdilution method
Klebsiella pneumoniae [11] = test: Antibacterial activity against ESBL-producing Klebsiella pneumoniae assessed as susceptible isolates at minimum inhibitory concentration of >16 ug/ml by CLSI broth microdilution method
Klebsiella pneumoniae [12] = test: Antibacterial activity against ESBL-producing Klebsiella pneumoniae assessed as susceptible isolates at minimum inhibitory concentration of 16 ug/ml by CLSI broth microdilution method
Klebsiella pneumoniae [13] = test: Antibacterial activity against ESBL-producing Klebsiella pneumoniae assessed as susceptible isolates at minimum inhibitory concentration of 4 ug/ml by CLSI broth microdilution method
Klebsiella pneumoniae [14] = test: Antibacterial activity against ESBL-producing Klebsiella pneumoniae assessed as susceptible isolates at minimum inhibitory concentration of 2 ug/ml by CLSI broth microdilution method
Klebsiella pneumoniae [15] = test: Antibacterial activity against ESBL-producing Klebsiella pneumoniae assessed as susceptible isolates at minimum inhibitory concentration of 1 ug/ml by CLSI broth microdilution method
Pseudomonas aeruginosa [16] = test: Antibacterial activity against Pseudomonas aeruginosa assessed as susceptible isolates at minimum inhibitory concentration of 0.5 ug/ml by CLSI broth microdilution method
Pseudomonas aeruginosa [17] = test: Antibacterial activity against Pseudomonas aeruginosa assessed as susceptible isolates at minimum inhibitory concentration of 0.25 ug/ml by CLSI broth microdilution method
Escherichia coli [18] = test: Antibacterial activity against ESBL-producing Escherichia coli assessed as susceptible isolates at minimum inhibitory concentration of >16 ug/ml by CLSI broth microdilution method
Escherichia coli [19] = test: Antibacterial activity against ESBL-producing Escherichia coli assessed as susceptible isolates at minimum inhibitory concentration of 8 ug/ml by CLSI broth microdilution method
Escherichia coli [20] = test: Antibacterial activity against ESBL-producing Escherichia coli assessed as susceptible isolates at minimum inhibitory concentration of 1 ug/ml by CLSI broth microdilution method
Escherichia coli [21] = test: Antibacterial activity against ESBL-producing Escherichia coli assessed as susceptible isolates at minimum inhibitory concentration of <=0.06 ug/ml by CLSI broth microdilution method
[22] = system: Stenotrophomonas maltophilia; test: Antibacterial activity against Stenotrophomonas maltophilia assessed as susceptible isolates at minimum inhibitory concentration of 0.5 ug/ml by CLSI broth microdilution method
[23] = system: Stenotrophomonas maltophilia; test: Antibacterial activity against Stenotrophomonas maltophilia assessed as susceptible isolates at minimum inhibitory concentration of 1 ug/ml by CLSI broth microdilution method
[24] = system: Stenotrophomonas maltophilia; test: Antibacterial activity against Stenotrophomonas maltophilia assessed as susceptible isolates at minimum inhibitory concentration of 4 ug/ml by CLSI broth microdilution method
[25] = system: Stenotrophomonas maltophilia; test: Antibacterial activity against Stenotrophomonas maltophilia assessed as susceptible isolates at minimum inhibitory concentration of 8 ug/ml by CLSI broth microdilution method
Klebsiella aerogenes = test: Antibacterial activity against Enterobacter aerogenes assessed as susceptible isolates at minimum inhibitory concentration of <=0.06 ug/ml by CLSI broth microdilution method
Acinetobacter baumannii [26] = test: Antibacterial activity against Acinetobacter baumannii assessed as susceptible isolates at minimum inhibitory concentration of 0.12 ug/ml by CLSI broth microdilution method
Acinetobacter baumannii [27] = test: Antibacterial activity against Acinetobacter baumannii assessed as susceptible isolates at minimum inhibitory concentration of >16 ug/ml by CLSI broth microdilution method
Pseudomonas aeruginosa [28] = test: Antibacterial activity against Amikacin-resistant Pseudomonas aeruginosa assessed as susceptible isolates at minimum inhibitory concentration of 4 ug/ml by CLSI broth microdilution method
Pseudomonas aeruginosa [29] = test: Antibacterial activity against Cefepime-resistant Pseudomonas aeruginosa assessed as susceptible isolates at minimum inhibitory concentration of 2 ug/ml by CLSI broth microdilution method
Pseudomonas aeruginosa [30] = test: Antibacterial activity against Ciprofloxacin-resistant Pseudomonas aeruginosa assessed as susceptible isolates at minimum inhibitory concentration of 1 ug/ml by CLSI broth microdilution method
Pseudomonas aeruginosa [31] = test: Antibacterial activity against Ciprofloxacin-resistant Pseudomonas aeruginosa assessed as susceptible isolates at minimum inhibitory concentration of 2 ug/ml by CLSI broth microdilution method
Pseudomonas aeruginosa [32] = test: Antibacterial activity against Ciprofloxacin-resistant Pseudomonas aeruginosa assessed as susceptible isolates at minimum inhibitory concentration of 8 ug/ml by CLSI broth microdilution method
Pseudomonas aeruginosa [33] = test: Antibacterial activity against Ciprofloxacin-resistant Pseudomonas aeruginosa assessed as susceptible isolates at minimum inhibitory concentration of 16 ug/ml by CLSI broth microdilution method
Pseudomonas aeruginosa [34] = test: Antibacterial activity against Ciprofloxacin-resistant Pseudomonas aeruginosa assessed as susceptible isolates at minimum inhibitory concentration of >16 ug/ml by CLSI broth microdilution method
Pseudomonas aeruginosa [35] = test: Antibacterial activity against Gentamicin-resistant Pseudomonas aeruginosa assessed as susceptible isolates at minimum inhibitory concentration of 2 ug/ml by CLSI broth microdilution method
Klebsiella oxytoca [36] = test: Antibacterial activity against Klebsiella oxytoca assessed as susceptible isolates at minimum inhibitory concentration of 4 ug/ml by CLSI broth microdilution method
Klebsiella oxytoca [37] = test: Antibacterial activity against Klebsiella oxytoca assessed as susceptible isolates at minimum inhibitory concentration of 2 ug/ml by CLSI broth microdilution method
Klebsiella oxytoca [38] = test: Antibacterial activity against Klebsiella oxytoca assessed as susceptible isolates at minimum inhibitory concentration of 0.12 ug/ml by CLSI broth microdilution method
Serratia marcescens [39] = test: Antibacterial activity against Serratia marcescens assessed as susceptible isolates at minimum inhibitory concentration of 16 ug/ml by CLSI broth microdilution method

With COLISTIN as the sequence, how does the Activity (Pseudomonas aeruginosa [1]) read?
The Activity was 33.3%.

What about the Activity (Pseudomonas aeruginosa [2]) of the same sequence?
Its Activity is 42.3%.

And the Activity (Pseudomonas aeruginosa [3])?
Its Activity is 100%.

And the Activity (Serratia marcescens [4])?
Its Activity is 1.9%.

What about the Activity (Serratia marcescens [5]) of the same sequence?
Its Activity is 0%.

And the Activity (Proteus mirabilis [6])?
Its Activity is 0%.

And the Activity (Proteus mirabilis [7])?
The Activity was 0%.

What about the Activity (Enterobacter cloacae [8]) of the same sequence?
Its Activity is 100%.

What about the Activity (Enterobacter cloacae [9]) of the same sequence?
Its Activity is 69.9%.

What about the Activity (Enterobacter cloacae [10]) of the same sequence?
Its Activity is 14%.

And the Activity (Klebsiella pneumoniae [11])?
Its Activity is 100%.

What about the Activity (Klebsiella pneumoniae [12]) of the same sequence?
The Activity was 98.1%.

And the Activity (Klebsiella pneumoniae [13])?
The Activity was 97.7%.

What about the Activity (Klebsiella pneumoniae [14]) of the same sequence?
Its Activity is 97.1%.

What about the Activity (Klebsiella pneumoniae [15]) of the same sequence?
The Activity was 95%.

And the Activity (Pseudomonas aeruginosa [16])?
Its Activity is 2.5%.

And the Activity (Pseudomonas aeruginosa [17])?
The Activity was 0%.

And the Activity (Escherichia coli [18])?
The Activity was 100%.

And the Activity (Escherichia coli [19])?
The Activity was 99.5%.

What about the Activity (Escherichia coli [20]) of the same sequence?
The Activity was 97.3%.

What about the Activity (Escherichia coli [21]) of the same sequence?
Its Activity is 0.1%.

What about the Activity [22] of the same sequence?
The Activity was 4.8%.

What about the Activity [23] of the same sequence?
Its Activity is 10.8%.

What about the Activity [24] of the same sequence?
Its Activity is 33.7%.

What about the Activity [25] of the same sequence?
Its Activity is 50.6%.

What about the Activity (Klebsiella aerogenes) of the same sequence?
The Activity was 0%.

What about the Activity (Acinetobacter baumannii [26]) of the same sequence?
Its Activity is 0%.

What about the Activity (Acinetobacter baumannii [27]) of the same sequence?
Its Activity is 100%.

What about the Activity (Pseudomonas aeruginosa [28]) of the same sequence?
Its Activity is 97.4%.

What about the Activity (Pseudomonas aeruginosa [29]) of the same sequence?
The Activity was 97.3%.

And the Activity (Pseudomonas aeruginosa [30])?
The Activity was 31.3%.

What about the Activity (Pseudomonas aeruginosa [31]) of the same sequence?
The Activity was 92.5%.

And the Activity (Pseudomonas aeruginosa [32])?
The Activity was 98.6%.

What about the Activity (Pseudomonas aeruginosa [33]) of the same sequence?
The Activity was 98.6%.

What about the Activity (Pseudomonas aeruginosa [34]) of the same sequence?
Its Activity is 100%.

What about the Activity (Pseudomonas aeruginosa [35]) of the same sequence?
The Activity was 99%.

What about the Activity (Klebsiella oxytoca [36]) of the same sequence?
The Activity was 97.2%.

And the Activity (Klebsiella oxytoca [37])?
The Activity was 95.4%.

And the Activity (Klebsiella oxytoca [38])?
The Activity was 0%.

What about the Activity (Serratia marcescens [39]) of the same sequence?
Its Activity is 1.9%.
